Target: T1, human calcium receptor (Homo sapiens, UniProt P41180)
T1 construct: expressed in transfected cells; host or cells: cell strain derived from rat adrenal, co-transformed with luciferase cDNA
T1 sequence (P41180 20-1078): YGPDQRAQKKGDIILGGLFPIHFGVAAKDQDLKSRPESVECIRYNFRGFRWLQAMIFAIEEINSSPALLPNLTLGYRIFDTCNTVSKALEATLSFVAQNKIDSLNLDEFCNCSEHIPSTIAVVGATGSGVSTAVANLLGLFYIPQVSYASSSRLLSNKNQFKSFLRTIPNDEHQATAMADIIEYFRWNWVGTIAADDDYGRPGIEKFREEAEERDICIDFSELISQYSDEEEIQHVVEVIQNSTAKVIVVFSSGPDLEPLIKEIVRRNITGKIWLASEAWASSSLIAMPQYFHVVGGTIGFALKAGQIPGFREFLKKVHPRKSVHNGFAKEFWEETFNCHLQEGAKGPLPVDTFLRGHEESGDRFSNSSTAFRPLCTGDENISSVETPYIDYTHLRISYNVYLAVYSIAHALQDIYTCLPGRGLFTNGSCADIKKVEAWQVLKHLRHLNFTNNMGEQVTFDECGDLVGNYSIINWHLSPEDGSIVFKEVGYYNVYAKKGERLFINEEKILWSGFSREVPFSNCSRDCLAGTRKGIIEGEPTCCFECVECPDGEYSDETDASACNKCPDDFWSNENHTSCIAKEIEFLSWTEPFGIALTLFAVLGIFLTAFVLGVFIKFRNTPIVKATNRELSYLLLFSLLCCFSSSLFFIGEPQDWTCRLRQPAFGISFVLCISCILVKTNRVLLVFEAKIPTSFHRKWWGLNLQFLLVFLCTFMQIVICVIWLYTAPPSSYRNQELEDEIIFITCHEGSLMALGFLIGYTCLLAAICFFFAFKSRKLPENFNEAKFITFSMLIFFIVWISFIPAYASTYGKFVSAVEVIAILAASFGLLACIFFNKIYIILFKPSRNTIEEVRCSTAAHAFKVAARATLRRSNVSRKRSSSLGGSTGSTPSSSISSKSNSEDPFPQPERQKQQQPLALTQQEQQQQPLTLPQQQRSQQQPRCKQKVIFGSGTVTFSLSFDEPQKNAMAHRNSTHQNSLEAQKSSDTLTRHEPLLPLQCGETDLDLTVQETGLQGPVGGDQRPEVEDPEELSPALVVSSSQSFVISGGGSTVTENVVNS
Assay: Evaluation of antagonistic action on calcium receptor using reporter gene (luciferase)
Assay type: cell-based
Settings: transformed rat adrenal derived cells, 5 mM calcium chloride, culture 4 hrs, luciferase activity; read-out: Reporter gene assay (IC50, concentration showing 50% inhibitory rate)
Protocol: Evaluation of Antagonistic Action on Calcium Receptor Using Reporter Gene
Luciferase cDNA and human calcium receptor cDNA were introduced into a cell strain derived from rat adrenal to transform the cells, and the transformed cells were cultured in a medium (80 μl, F12 medium containing 0.5% dialyzed horse serum and 0.25% dialyzed bovine fetal serum). A dimethyl sulfoxide solution containing a test compound at 0.1-10000 μM was diluted 100-fold with the medium and added to the test compound group at 10 μl per well (dimethyl sulfoxide final concentration 0.1%). In the same manner as in test compound group, dimethyl sulfoxide 100-fold diluted with medium was added to a control group and a blank group. Then, 50 mM calcium chloride-containing medium was added to every well except the blank group at 10 μl per well (final concentration 5 mM). A medium containing 50 mM calcium chloride was added to the control group at 10 μl per well, such that the final calcium concentration of the medium became 5 mM. A medium alone was added to the blank group. After culture for 4 hrs, luciferase substrate was added and the luciferase activity was measured with a photoluminometer. The inhibitory rate (%) was calculated from the obtained measured values according to the following formula.
Based on the results, the concentration (IC50) showing 50% inhibitory rate was determined. The results are shown in the aforementioned Tables 1 to 60.

| Compound | IC50 |
| --- | --- |
| Cc1cc(-c2ccccc2[C@@H](C)OC[C@H](O)CNC(C)(C)Cc2cccc(Cl)c2)ccc1C(=O)O [Example 1-60, 2′-[1-[(2R)-3-[[1-(3-chlorophenyl)-2-methylpropan-2-yl]amino]-2-hydroxypropoxy]ethyl]-3-methylbiphenyl-4-carboxylic acid] | 96 nM |
| Cc1cc(-c2ccccc2[C@@H](C)OC[C@H](O)CNC(C)(C)Cc2ccc(Cl)c(Cl)c2)ccc1C(=O)O [Example 1-61, 2′-[1-[(2R)-3-[[1-(3,4-dichlorophenyl)-2-methylpropan-2-yl]amino]-2-hydroxypropoxy]ethyl]-3-methylbiphenyl-4-carboxylic acid] | 4 nM |
| Cc1cc(-c2ccccc2C(OC[C@H](O)CNC(C)(C)Cc2ccc3ccccc3c2)C2CC2)ccc1C(=O)O (stereo partly drawn) [Example 1-63, 2′-[(cyclopropyl)[(2R)-3-[[1-(naphthalen-2-yl)-2-methylpropan-2-yl]amino]-2-hydroxypropoxy]methyl]-3-methylbiphenyl-4-carboxylic acid] | 16 nM |
| CC(C)(Cc1ccc2ccccc2c1)NC[C@@H](O)COC(c1ccccc1-c1ccc(C(=O)O)cc1F)C1CC1 (stereo partly drawn) [Example 1-65, 2′-[(cyclopropyl)[(2R)-3-[[1-(naphthalen-2-yl)-2-methylpropan-2-yl]amino]-2-hydroxypropoxy]methyl]-2-fluorobiphenyl-4-carboxylic acid] | 16 nM |
| C[C@@H](OC[C@H](O)CNC(C)(C)Cc1ccc(Cl)c(Cl)c1)c1ccccc1-c1ccc(C(=O)O)cc1F [Example 1-67, 2′-[1-[(2R)-3-[[1-(3,4-dichlorophenyl)-2-methylpropan-2-yl]amino]-2-hydroxypropoxy]ethyl]-2-fluorobiphenyl-4-carboxylic acid] | 19 nM |
| C[C@@H](OC[C@H](O)CNC(C)(C)Cc1ccc2ccccc2c1)c1ccccc1-c1ccc(C(=O)O)c([N+](=O)[O-])c1 [Example 1-69, 2′-[1-[(2R)-3-[[1-(naphthalen-2-yl)-2-methylpropan-2-yl]amino]-2-hydroxypropoxy]ethyl]-3-nitrobiphenyl-4-carboxylic acid] | 2 nM |
| CC(=O)Nc1cc(-c2ccccc2[C@@H](C)OC[C@H](O)CNC(C)(C)Cc2ccc3ccccc3c2)ccc1C(=O)O [Example 1-71, 3-(acetylamino)-2′-[1-[(2R)-3-[[1-(naphthalen-2-yl)-2-methylpropan-2-yl]amino]-2-hydroxypropoxy]ethyl]biphenyl-4-carboxylic acid] | 5 nM |
| C[C@@H](OC[C@H](O)CNC(C)(C)Cc1ccc2ccccc2c1)c1ccccc1-c1cc2c(c(C(=O)O)c1)OCC2 [Example 1-74, 2,3-dihydro-5-[2-[1-[(2R)-3-[[1-(naphthalen-2-yl)-2-methylpropan-2-yl]amino]-2-hydroxypropoxy]ethyl]phenyl]benzofuran-7-carboxylic acid] | 11 nM |
| Cc1ccc(CC(C)(C)NC[C@@H](O)CO[C@H](C)c2ccccc2-c2cc3c(c(C(=O)O)c2)OCC3)cc1F [Example 1-78, 2,3-dihydro-5-[2-[1-[(2R)-3-[[1-(3-fluoro-4-methylphenyl)-2-methylpropan-2-yl]amino]-2-hydroxypropoxy]ethyl]phenyl]benzofuran-7-carboxylic acid] | 20 nM |
| Cc1ccc(CC(C)(C)NC[C@@H](O)CO[C@H](C)c2ccccc2-c2ccc(C(=O)O)c(Cc3ccccc3)c2)cc1F [Example 1-79, 3-benzyl-2′-[1-[(2R)-3-[[1-(3-fluoro-4-methylphenyl)-2-methylpropan-2-yl]amino]-2-hydroxypropoxy]ethyl]biphenyl-4-carboxylic acid] | 4 nM |

Further molecules by falling IC50, results first:

| IC50 | Compound |
| --- | --- |
| 22 nM | Cc1ccc(CC(C)(C)NC[C@@H](O)CO[C@H](C)c2ccccc2-c2c(C)cc(C(=O)O)cc2C)cc1F [Example 1-76] |
| 21 nM | C[C@@H](OC[C@H](O)CNC(C)(C)Cc1ccc2ccccc2c1)c1ccccc1-c1cc(C(=O)O)ccc1F [Example 1-58, 6-fluoro-2′-[1-[(2R)-3-[[1-(naphthalen-2-yl)-2-methylpropan-2-yl]amino]-2-hydroxypropoxy]ethyl]biphenyl-3-carboxylic acid] |
| 21 nM | C[C@@H](OC[C@H](O)CNC(C)(C)Cc1ccc2ccccc2c1)c1ccccc1-c1ccc(C(=O)O)c(N(C)C)c1 [Example 1-77, 3-(dimethylamino)-2′-[1-[(2R)-3-[[1-(naphthalen-2-yl)-2-methylpropan-2-yl]amino]-2-hydroxypropoxy]ethyl]biphenyl-4-carboxylic acid] |
| 19 nM | C[C@@H](OC[C@H](O)CNC(C)(C)Cc1ccc2ccccc2c1)c1ccccc1-c1ccc(F)c(C(=O)O)c1 [Example 1-56, 4-fluoro-2′-[1-[(2R)-3-[[1-(naphthalen-2-yl)-2-methylpropan-2-yl]amino]-2-hydroxypropoxy]ethyl]biphenyl-3-carboxylic acid] |
| 17 nM | CC(C)(Cc1ccc2ccccc2c1)NC[C@@H](O)COC(c1ccccc1-c1ccc(C(=O)O)c(F)c1)C1CC1 (stereo partly drawn) [Example 1-64, 2′-[(cyclopropyl)[(2R)-3-[[1-(naphthalen-2-yl)-2-methylpropan-2-yl]amino]-2-hydroxypropoxy]methyl]-3-fluorobiphenyl-4-carboxylic acid] |
| 17 nM | Cc1cc(C(=O)O)ccc1-c1ccccc1C(OC[C@H](O)CNC(C)(C)Cc1ccc2ccccc2c1)C1CC1 (stereo partly drawn) [Example 1-66, 2′-[(cyclopropyl)[(2R)-3-[[1-(naphthalen-2-yl)-2-methylpropan-2-yl]amino]-2-hydroxypropoxy]methyl]-2-methylbiphenyl-4-carboxylic acid] |
| 15 nM | Cc1ccc(CC(C)(C)NC[C@@H](O)CO[C@H](C)c2ccccc2-c2ccc(C(=O)O)c(Cl)c2)cc1F [Example 1-72, 3-chloro-2′-[1-[(2R)-3-[[1-(3-fluoro-4-methylphenyl)-2-methylpropan-2-yl]amino]-2-hydroxypropoxy]ethyl]biphenyl-4-carboxylic acid] |
| 12 nM | Cc1cc(C(=O)O)cc(C)c1-c1ccccc1[C@@H](C)OC[C@H](O)CNC(C)(C)Cc1ccc2ccccc2c1 [Example 1-75, 2,6-dimethyl-2′-[1-[(2R)-3-[[1-(naphthalen-2-yl)-2-methylpropan-2-yl]amino]-2-hydroxypropoxy]ethyl]biphenyl-4-carboxylic acid] |
| 10 nM | Cc1cc(-c2ccccc2[C@@H](C)OC[C@H](O)CNC(C)(C)Cc2ccc3ccccc3c2)ccc1C(=O)O [Example 1-55, 3-methyl-2′-[1-[(2R)-3-[[1-(naphthalen-2-yl)-2-methylpropan-2-yl]amino]-2-hydroxypropoxy]ethyl]biphenyl-4-carboxylic acid] |
| 8 nM | C[C@@H](OC[C@H](O)CNC(C)(C)Cc1ccc2ccccc2c1)c1ccccc1-c1ccc(C(=O)O)cc1F [Example 1-62, 2-fluoro-2′-[1-[(2R)-3-[[1-(naphthalen-2-yl)-2-methylpropan-2-yl]amino]-2-hydroxypropoxy]ethyl]biphenyl-4-carboxylic acid] |
| 5 nM | C[C@@H](OC[C@H](O)CNC(C)(C)Cc1ccc2ccccc2c1)c1ccccc1-c1ccc(C(=O)O)c(N)c1 [Example 1-70, 3-amino-2′-[1-[(2R)-3-[[1-(naphthalen-2-yl)-2-methylpropan-2-yl]amino]-2-hydroxypropoxy]ethyl]biphenyl-4-carboxylic acid] |
| 3 nM | C[C@@H](OC[C@H](O)CNC(C)(C)Cc1ccc2ccccc2c1)c1ccccc1-c1ccc(C(=O)O)c(Cl)c1 [Example 1-68, 3-chloro-2′-[1-[(2R)-3-[[1-(naphthalen-2-yl)-2-methylpropan-2-yl]amino]-2-hydroxypropoxy]ethyl]biphenyl-4-carboxylic acid] |
